In patent publication US20080090900A1, “ANTIBIOTIC BUSHRIN” (University of Karachi, priority 2006, published 2008):

System: Clostridium sporogenes
Assay: microbe, parasite or virus in culture
Format: cell-based

Question: How did the “antibacterial activity” value turn out when `Cc1cc(O)c2c(c1)C=CC(C)(c1ccoc1)C2` (stereo not shown) [Compound 1, 7-(3-furyl)-3,7-dimethyl-7,8-dihydro-1-naphthalenol] was run?
Answer: Its value is “less active”.
